The target of experiment [1] is T1, mushroom tyrosinase.
T1 construct: gene PPO3
Kind of experiment: dopachrome formation at […] nm, monophenolase activity. The experiment is classed as biochemical. The note with it: 0.5 mM L-tyrosine, 20 µg/mL enzyme, 50 mM phosphate pH 6.8, 30°C, air-saturated, proposed suicide substrate.

The test system of experiment [2] is T1, mushroom tyrosinase. Kind of experiment: dopachrome formation at […] nm, diphenolase activity, Lineweaver-Burk. The experiment is classed as biochemical. The following applies: no α-arbutin, 6.67 µg/mL enzyme, 50 mM phosphate pH 6.8, 30°C, air-saturated; apparent Km.

The structures appear in SMILES notation.

Among the data in PMC4193772, “Dual Effects of Alpha-Arbutin on Monophenolase and Diphenolase Activities of Mushroom Tyrosinase” (PLoS ONE, 2014) are IC50 and Km values, retold here.

As for `OC[C@H]1O[C@H](Oc2ccc(O)cc2)[C@H](O)[C@@H](O)[C@@H]1O` [α-arbutin], half-maximal inhibition at mushroom tyrosinase [1] (IC50) was put at 4.5 mM.

Regarding `N[C@@H](Cc1ccc(O)c(O)c1)C(=O)O` [L-Dopa], the Km (commonly the substrate concentration at which the rate is half of its maximum) in the experiment with mushroom tyrosinase [2] came to 3.92 mM.
